How the values were obtained:
mPGES-1 [1] = molecular target: T1, mPGES-1 (Homo sapiens (Human), UniProt O14684); test: mPGES-1 enzyme assay (HTRF detection of PGE2); assay type: biochemical; conditions: recombinant human mPGES-1 microsomes, PGH2 2 μM; read-out: mPGES-1 inhibitory effect in the enzyme assay, IC50
Description: Microsomes from Rosetta E. coli bacteria expressing recombinant human mPGES-1 can be derived as described below:
Inoculate 5 ml LB with Ampicilin (50 μg/ml) and Chloramphenicol (34 μg/ml) with bacteria from freeze culture. Incubate 8 h at 37° C. with 200 rpm. Thereafter, inoculate 500-1000 ml LB containing Amp and Chloro with the 5 ml on culture and grow to OD640 of 0.8-1.0. Chill the culture to +4° C. before induction. Induce the culture with IPTG at a final concentration of 400 μM. Express the protein at room temp 18-23° C. with 200 rpm shaking over night.
The following steps can be performed on the following day: • 1. Spin down the cells in 250 ml centrifuge flasks for 15 min at 7000 rpm (Beckmann Coulte Avanti J-E centrifuge) • 2. Dissolve the pellet from 250 ml culture in 12.5 ml homogenization buffer • 3. (15 mM Tris-HCL pH8, 1 mM EDTA pH8, […], 2.5 mM GSH, 1 Tablet Protease inhibitor per 50 ml buffer) • 4. […] Add 2.5 ml MgCl2 (100 mM) and DNase 12.5 μl (0.8 mg/ml) and incubate on ice for 30 min • 6. Spin down the bacteria debris and save the supernatant, 7000 rpm for 15 min • 7. Isolate the protein containing membranes in the supernatant by ultracentrifugation 120000×g for 2 hour at 4° C. (Sorvall T880 rotor). • 8. Discard the supernatant and dissolve the pellet in 20 mM Potassium phosphate buffer pH7.4 (KH2PO4 and K2HPO4) buffer by sonication (5×10 s, 30% of a 50 W sonifier) and aliquot the enzyme and store aliquots at −80° C.
Before each experiment is performed an aliquot of the enzyme is thawed and it can then be dissolved in 0.1 M Potassium phosphate buffer pH7.4 (KH2PO4 and K2HPO4) buffer containing 2.5 mM GSH.
The aim of this assay is to determine the affinity of a test compound for the mPGES-1 enzyme.
47 μl of recombinant human mPGES-1 (˜0.5 μg protein/well) containing microsomal suspension in a buffer containing GSH, (2.5 mmol/L L-Glutathione reduced, dissolved in 0.1 mol/L Phosphat Buffer pH 7.4) is dispensed in a 384-well plate and thereafter 1 μl of the test compound(s) is/are added and incubated for 25 minutes at room temperature. The enzyme reaction is started by the addition of 2 ul PGH2 (final conc. 2 μM) dissolved in water-free Diglyme. After 60 seconds the reaction is terminated by addition of a stop solution containing FeCl2 (10 μL 0.074 mol/l FeCl2). The samples are diluted between 1:25 in PBS (Phosphate Buffered Saline). 10 μl of the diluted samples are transferred to 384-well low volume plate. In order to quantify the amount of PGE2 that has been formed, a homogenous time resolved fluorescent (HTRF) detecting of PGE2 has been performed using a commercially available kit from Cisbio according to the manufactures recommendation. […] Briefly, the diluted samples are mixed with 5 μl PGE2-d2 conjungate and 5 μl anti-PGE2 cryptate conjungate. After an incubation period of the plates over night, the fluorescence is measured by the use of an appropriate microplate reader.
The quantification plate contains also wells with different concentrations of PGE2 as calibration curve for the calculation of the PGE2 concentrations from the HTRF ratio values.
From all mPGES enzyme assay the background is subtracted and the IC50 is calculated over a nonlinear regression with conventional software.

mPGES-1 [2] = molecular target: T1, mPGES-1; test: A549 cell-based assay (PGE2 formation, IL-1β stimulated, 50% human serum); conditions: A549 cells
Description: Although the enzymatic assay is a high throughput assay the disadvantage is that it uses a recombinant protein which is not in its natural environment. Accordingly a cellular assay was established in which a cell line of human origin (A549) expressing the mPGES-1 protein was used. In addition in order to mimic the situation in humans in which compounds can be bound to plasma proteins 50% human serum is added in the assay.
Cells were detached using Trypsin-EDTA. A549 cells were seeded in a 384-well collagene plate at a density of 7000 cells/well (50 μl) in F-12 medium containing 1% Penicillin-Streptomycin and 50% human serum. The cells were allowed to attach for 3-4 h. […] The total volume is 100 μl.
Concentrations of PGE2 in the cell free medium (10 μl) were measured using a commercially available HTRF kit from Cisbio (as described above). The PGE2 formation in the absence of test compound was taken as 100%.
IC50 values were derived from at 6-8 point titrations using conventional software.

[3] = IL-1β 5 ng/ml, read-out: mPGES-1 inhibitory effect in the cell assay, IC50

T1 sequence (O14684 whole entry): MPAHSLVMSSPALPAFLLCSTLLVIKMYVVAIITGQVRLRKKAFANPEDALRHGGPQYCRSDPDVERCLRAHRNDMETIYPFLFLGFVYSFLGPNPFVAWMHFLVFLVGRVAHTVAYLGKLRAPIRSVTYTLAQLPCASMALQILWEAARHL

| IC50 (mPGES-1 [1]) | IC50 (mPGES-1 [2]; [3]) | IC50 (mPGES-1 [2]; Table C comparison of selected benzimidazoles, read-out: Cell IC50) | Compound |
| --- | --- | --- | --- |
| 2 nM | 3 nM | – | CC(C)(C)C(=O)NCc1ccc(Cl)c(Nc2nc3cc(C(=O)N[C@H]4CC[C@H](C(F)(F)F)CC4)c(OCC(F)F)cc3[nH]2)c1Cl [Example 2, N-(trans-4-Trifluoromethyl-cyclohex-1-yl)-2-{2,6-dichloro-3-[(2,2-dimethyl-propionylamino)-methyl]-phenylamino}-6-(2,2-difluoro-ethoxy)-1H-benzimidazole-5-carboxylic acid amide] |
| 4 nM | 2 nM | – | CC(C)(C)C(=O)NCc1ccc(Cl)c(Nc2nc3cc(C(=O)Nc4ccc(Br)cc4)c(OCC(F)F)cc3[nH]2)c1Cl [Example 4, N-(4-Bromo-phenyl)-2-{2,6-dichloro-3-[(2,2-dimethyl-propionylamino)-methyl]-phenylamino}-6-(2,2-difluoro-ethoxy)-1H-benzimidazole-5-carboxylic acid amide] |
| 2 nM | < 1 nM | – | Cn1c(Nc2c(Cl)ccc(CNC(=O)C(C)(C)C)c2Cl)nc2cc(C(=O)Nc3ccc(Br)cc3)c(OCC(F)F)cc21 [Example 5, N-(4-Bromo-phenyl)-2-{2,6-dichloro-3-[(2,2-dimethyl-propionylamino)-methyl]-phenylamino}-6-(2,2-difluoro-ethoxy)-1-methyl-1H-benzimidazole-5-carboxylic acid amide] |
| 3 nM | < 1 nM | – | Cn1c(Nc2c(Cl)ccc(CNC(=O)C(C)(C)C)c2F)nc2cc(C(=O)Nc3ccc(Br)cc3)c(OCC(F)F)cc21 [Example 8] |
| 4 nM | 79 nM | – | Cn1c(Nc2c(F)ccc(CNC(=O)C(C)(C)C)c2F)nc2cc(C(=O)Nc3ccc(Br)cc3)c(F)cc21 [Example 9] |
| 7 nM | 4 nM | – | Cn1c(Nc2c(F)ccc(CNC(=O)C(C)(C)C)c2F)nc2cc(C(=O)N[C@H]3CC[C@H](C(F)(F)F)CC3)c(F)cc21 [Example 10] |
| 3 nM | – | – | CC(C)(C)C(=O)NCc1ccc(F)c(Nc2nc3cc(C(=O)Nc4ccc(F)c(Cl)c4)c(F)cc3[nH]2)c1F [Example 24] |
| – | 1 nM | – | Cn1c(Nc2c(Cl)ccc(CNC(=O)C(F)F)c2Cl)nc2cc(C(=O)Nc3ccc(F)c(Cl)c3)c(OCC(F)F)cc21 [Example 159] |
| – | < 1 nM | – | Cn1c(Nc2c(Cl)ccc(CNC(=O)C3CCCC3)c2Cl)nc2cc(C(=O)Nc3ccc(F)c(Cl)c3)c(OCC(F)F)cc21 [Example 160] |
| – | 2 nM | – | Cn1c(Nc2c(Cl)ccc(CNC(=O)C(O)C(F)(F)F)c2Cl)nc2cc(C(=O)Nc3ccc(F)c(Cl)c3)c(OCC(F)F)cc21 (centres unmarked) [Example 161] |
| – | < 1 nM | – | Cn1c(Nc2c(Cl)ccc(CNC(=O)C(C)(F)F)c2Cl)nc2cc(C(=O)Nc3ccc(F)c(Cl)c3)c(OCC(F)F)cc21 [Example 162] |
| – | 5 nM | – | COCC(=O)NCc1ccc(Cl)c(Nc2nc3cc(C(=O)Nc4ccc(F)c(Cl)c4)c(OCC(F)F)cc3n2C)c1Cl [Example 163] |
| – | 15 nM | – | Cn1c(Nc2c(Cl)ccc(CNC(=O)C(N)C(F)(F)F)c2Cl)nc2cc(C(=O)Nc3ccc(F)c(Cl)c3)c(OCC(F)F)cc21 (centres unmarked) [Example 164] |
| – | < 1 nM | – | Cn1c(Nc2c(Cl)ccc(CNC(=O)C3(C(F)(F)F)CCCC3)c2Cl)nc2cc(C(=O)Nc3ccc(F)c(Cl)c3)c(OCC(F)F)cc21 [Example 165] |
| – | 7 nM | – | Cn1c(Nc2c(Cl)ccc(CNC(=O)c3ccno3)c2Cl)nc2cc(C(=O)Nc3ccc(F)c(Cl)c3)c(OCC(F)F)cc21 [Example 166] |
| – | 6 nM | – | Cn1c(Nc2c(Cl)ccc(CNC(=O)C3CC(F)(F)C3)c2Cl)nc2cc(C(=O)Nc3ccc(F)c(Cl)c3)c(OCC(F)F)cc21 [Example 167] |
| – | < 1 nM | – | Cn1c(Nc2c(Cl)ccc(CNC(=O)c3sccc3Cl)c2Cl)nc2cc(C(=O)Nc3ccc(F)c(Cl)c3)c(OCC(F)F)cc21 [Example 168] |
| – | < 1 nM | – | Cn1c(Nc2c(Cl)ccc(CNC(=O)C3(C)CCCO3)c2Cl)nc2cc(C(=O)Nc3ccc(F)c(Cl)c3)c(OCC(F)F)cc21 (centres unmarked) [Example 170] |
| – | 4 nM | – | Cn1c(Nc2c(Cl)ccc(CNC(=O)C3(O)CC3)c2Cl)nc2cc(C(=O)Nc3ccc(F)c(Cl)c3)c(OCC(F)F)cc21 [Example 171] |
| – | 2 nM | – | Cn1c(Nc2c(Cl)ccc(CNC(=O)C3CCC3)c2Cl)nc2cc(C(=O)Nc3ccc(F)c(Cl)c3)c(OCC(F)F)cc21 [Example 172] |
| – | < 1 nM | – | Cn1c(Nc2c(Cl)ccc(CNC(=O)C3(C(F)(F)F)CC3)c2Cl)nc2cc(C(=O)Nc3ccc(F)c(Cl)c3)c(OCC(F)F)cc21 [Example 174] |
| – | < 1 nM | – | Cn1c(Nc2c(Cl)ccc(CNC(=O)C(C)(C)C(F)(F)F)c2Cl)nc2cc(C(=O)Nc3ccc(F)c(Cl)c3)c(OCC(F)F)cc21 [Example 176] |
| – | – | > 200 nM | Cn1c(Nc2cc(CNC(=O)C(C)(C)C)ccc2Cl)nc2cc(C(=O)NCC3CC3)c(OCC(F)F)cc21 [[drawing 49] of PCT/EP2010/052799, reference compound] |

| Compound | IC50 (mPGES-1 [1]) | IC50 (mPGES-1 [2]; [3]) | IC50 (mPGES-1 [2]; Table C comparison of selected benzimidazoles, read-out: Cell IC50) |
| --- | --- | --- | --- |
| Cn1c(Nc2c(Cl)ccc(CNC(=O)C(C)(C)C)c2Cl)nc2cc(C(=O)N[C@H]3CC[C@H](C(F)(F)F)CC3)c(OCC(F)F)cc21 [Example 1, N-(trans-4-Trifluoromethyl-cyclohex-1-yl)-2-{2,6-dichloro-3-[(2,2-dimethyl-propionylamino)-methyl]-phenylamino}-6-(2,2-difluoro-ethoxy)-1-methyl-1H-benzimidazole-5-carboxylic acid amide] | 2 nM | < 1 nM | – |
| Cn1c(Nc2c(Cl)ccc(CNC(=O)C(C)(C)C)c2Cl)nc2cc(C(=O)N[C@H]3CC[C@H](C(F)(F)F)CC3)c(F)cc21 [Example 3, N-(trans-4-Trifluoromethyl-cyclohex-1-yl)-2-{2,6-dichloro-3-[(2,2-dimethyl-propionylamino)-methyl]-phenylamino}-6-fluoro-1-methyl-1H-benzimidazole-5-carboxylic acid amide] | 4 nM | 1 nM | – |
| CC(C)(C)C(=O)NCc1ccc(Cl)c(Nc2nc3cc(C(=O)N[C@H]4CC[C@H](C(F)(F)F)CC4)c(F)cc3[nH]2)c1Cl [Example 12, N-(trans-4-Trifluoromethyl-cyclohex-1-yl)-2-{2,6-dichloro-3-[(2,2-dimethyl-propionylamino)-methyl]-phenylamino}-6-fluoro-1H-benzimidazole-5-carboxylic acid amide] | 4 nM | 7 nM | – |
| Cn1c(Nc2c(Cl)ccc(CNC(=O)OC(C)(C)C)c2Cl)nc2cc(C(=O)N[C@H]3CC[C@H](C(F)(F)F)CC3)c(OCC(F)F)cc21 [Example 13, N-(trans-4-Trifluoromethyl-cyclohex-1-yl)-2-{2,6-dichloro-3-[(tert-butoxy-carbonylamino)-methyl]-phenylamino}-6-(2,2-difluoroethoxy)-1-methyl-1H-benzimidazole-5-carboxylic acid amide] | 3 nM | 28 nM | – |
| Cn1c(Nc2c(Cl)ccc(CNC(=O)C(C)(C)C)c2Cl)nc2cc(C(=O)Nc3ccc(F)c(Cl)c3)c(OCCF)cc21 [Example 177, N-(3-Chloro-4-fluoro-phenyl)-2-{2,6-dichloro-3-[(2,2-dimethyl-propionylamino)-methyl]-phenylamino}-6-(2-fluoroethoxy)-1-methyl-1H-benzimidazole-5-carboxylic acid amide] | – | < 1 nM | – |
